Experimental data from paper PMC12736141, “New Quinazolin-4(3H)-one Derivatives as Potential Antitumoral Compounds: Synthesis, In Vitro Cytotoxicity Against the HepG2 Cell Line, and In Silico VEGFR-2 Targeting-Based Studies” (Molecules, 2025).

Assays:
[1] = In vitro lipophilicity by RP-HPLC; format: physicochemical; settings: logarithm of the capacity factor
Description: The chromatographic behavior of compounds 5a–c was also examined by high-performance liquid chromatography coupled with mass spectrometry (HPLC-MS). The analyses were conducted using an Agilent 1100 series HPLC system (binary pump, autosampler, thermostat, UV detector, Agilent Technologies, USA) coupled to a Bruker Ion Trap SL system (Bruker Daltonics GmbH). Chromatographic separation was completed using a Zorbax SB-C18 column (50 mm × 2.1 mm i.d., 3.5 μm, Agilent Technologies). The mobile phase consisted of a mixture of water with 0.1% (v/v) acetic acid and acetonitrile. The elution gradient started at 15% acetonitrile and increased to 95% within 5 min. The flow rate was 0.6 mL/min, and the thermostat was set at 45 °C. UV detection was performed at 242 nm. Based on the retention times obtained, the capacity factor k was calculated using formula […], where tR = retention time of the compound and t0 = retention time of the solvent:k = (tR − t0)/t0,(4)
The logarithm of the capacity factor (log k) was used to estimate the lipophilicity of the compounds [71]. The RP-HPLC method has multiple advantages, including low sample requirements, good accuracy of determinations, fast analysis, and high reproducibility.

[2] = In vitro lipophilicity by RP-TLC; format: physicochemical; settings: for PC2 / PC1: PCA score on RM values; for PC1: lower value = more lipophilic; for RM / Rf / mRM / RM0 / b / lipophilicity ranking (in words): RP-TLC; for mRM: arithmetic mean of RM values; for RM0: extrapolation of RM to 0% organic modifier; for b: slope of the line RM = f(c); for lipophilicity ranking (in words): within series 5a–c
Description: The chromatographic performance of compounds 5a–c was investigated by reverse-phase thin-layer chromatography (RP-TLC). Standardized Silica gel 60 RP-18 F254S chromatographic plates (20 × 10 cm, Merck, Darmstadt, Germany) were used as the stationary phase, and an i-propanol–water mixture, in volumetric proportions ranging from 40% to 60% (v/v) i-propanol, was used as the mobile phase. The variance between two successive elution mixtures was 5%.
Solutions containing 1 mg/mL of compounds 5a–c were prepared in dimethylsulfoxide (DMSO). A volume equal to 2 μL of each sample was manually applied using chromatographic capillary micropipettes, at a distance of 10 mm from the lower side of the plates and 10 mm from their lateral sides. The gap between two successive spots was 10 mm.
The development process was carried out at room temperature using a chromatographic chamber pre-saturated for 30 min with mobile-phase vapors. The migration distance of the mobile phase was 80 mm for all concentrations used, and it was determined manually by calculating the retention factor Rf; thus, Rf = migration distance of the compound/migration distance of the mobile phase. Rf values were calculated for each tested compound at all five concentrations of the mobile phase.
The spots were visualized under UV light at a wavelength of 254 nm.
Starting from the Rf values determined by RP-TLC, a series of lipophilicity parameters was calculated. Therefore, based on the Bate-Smith and Westall equation, the logarithmic RM values were obtained:RM = log [1/Rf−1](2)
Based on the linear relationship between the RM value and the concentration of the organic solvent in the mobile phase [c], using the linear regression equation and the Soczewinski–Wachtmeister model (where b = slope of the line and c = concentration of organic modifier), the values of another lipophilicity parameter, RM0, were determined by extrapolating the RM values to 0% organic modifier:RM = RM0 + b[c](3)
The arithmetic mean of the lipophilicity parameter RM values, corresponding to a series of concentrations of the organic modifier in the mobile phase, was determined. Therefore, the mRM lipophilicity parameter was obtained.
Applying principal component analysis (PCA, XL-STAT) to the lipophilicity parameter RM, new lipophilicity parameters represented by the principal components (PCs) were obtained.
Starting from the experimentally determined Rf values, the RM logarithmic values were calculated. Consequently, the presence of minor errors in determining the Rf values can generate errors in calculating the RM values. By analyzing the principal components, the errors in estimating the RM0 values are eliminated through extrapolation, thereby providing more precise results.

[3] = tested on: human hepatocellular carcinoma (HepG2); assay: MTT cytotoxicity assay on HepG2 cells; format: cell-based; settings: for Selectivity Index (SI) / IC50: 48 h; for Selectivity Index (SI): SI = IC50 BJ/IC50 HepG2; for IC50: Homo sapiens, HepG2 cells, MTT
Description: (§1) Compounds 5a–c were dissolved in dimethylsulfoxide (DMSO) at an initial concentration of 10 mM, which was diluted 10 times with the characteristic medium and placed on plates at final concentrations ranging from 12.5 to 150 μM. The cells were seeded on plates of 96 wells at a density of 1 × 10^4 cells per well and incubated for 48 h. The culture medium was removed, and then 100 µL MTT (3-(4,5-dimethylthiazol-2-yl)-2,5-diphenyltetrazolium bromide) was added for 1 h. After that, it was removed, and 150 µL of pure dimethylsulfoxide (DMSO) was added. The samples were read using an ELISA Reader (BioTek, Winooski, VT, USA) at 570 nm. […] All determinations were made in triplicate.
(§2) The half-maximal inhibitory concentration (IC50) values were calculated to evaluate the potency of compounds 5a–c by fitting the investigational data with a 4-parameter logistic curve to obtain the dose-effect curves. The experimental IC50 results are expressed as mean values ± standard deviation (SD) of the three biological replicates.
(§3) Two-way analysis of variance (ANOVA) with a post hoc Bonferroni test was used to statistically examine the relative cell viability (%), compared to the negative control (NC), which was 100%. Data were analyzed using the […] software (GraphPad Prism 8.0.2. Software, La Jolla, CA, USA). In terms of statistical analysis, the results were considered different at values of p < 0.05 or p < 0.001.
The selectivity index (SI) was used as a parameter to determine how many times more cytotoxic the investigated compounds were by exposing them to normal and cancer cells. It was calculated using the IC50 value ratio between the BJ cell line and the HepG2 cell line, both obtained from ATCC (Manassas, VA, USA). Results that are greater than 2 are considered suitable, as reported in the literature.

[4] = tested on: human foreskin fibroblasts (BJ); assay: MTT cytotoxicity assay on BJ cells; format: cell-based; settings: 48 h; for cytotoxicity on BJ cell line (in words) / IC50: BJ cells; for IC50: Homo sapiens, MTT
Description: as §1, §2, §3

[5] = Isopropanol–Water 40:60 (v:v %)
[6] = Isopropanol–Water 45:55 (v:v %)
[7] = Isopropanol–Water 50:50 (v:v %)
[8] = Isopropanol–Water 55:45 (v:v %)
[9] = Isopropanol–Water 60:40 (v:v %)

| log k [1] | PC2 [2] | PC1 [2] | RM [2, 5] | Rf [2, 5] | RM [2, 6] | Rf [2, 6] | RM [2, 7] | Rf [2, 7] | RM [2, 8] | Rf [2, 8] | RM [2, 9] | Rf [2, 9] | mRM [2] | RM0 [2] | b [2] | lipophilicity ranking (in words) [2] | Structure (SMILES) | IC50 [3] [µM] | cytotoxicity on BJ cell line (in words) [4] | IC50 [4] [µM] | other results |
| --- | --- | --- | --- | --- | --- | --- | --- | --- | --- | --- | --- | --- | --- | --- | --- | --- | --- | --- | --- | --- | --- |
| 0.99 | 0.41 | −2.01 | 0.36 | 0.30 | 0.23 | 0.37 | 0.06 | 0.46 | −0.14 | 0.58 | −0.41 | 0.72 | 0.02 | −0.03 | 1.95 | The most lipophilic compound | NC(=O)c1cc(C(=O)CSc2nc3ccccc3c(=O)n2Cc2ccccc2)ccc1O [5b, 5-(2-((3-benzyl-4-oxo-3,4-dihydroquinazolin-2-yl)thio)acetyl)-2-hydroxybenzamide] | 24.87 ± 0.19 | moderate cytotoxicity | 26.6 ± 1.07 | Selectivity Index (SI) [3]: 1.06; reduction of viability values ([4]; BJ, concentrations higher than 50 and 100 µM): more than 35%; decrease of cell viability ([4]; BJ, concentrations over 25 µM): more than 50% |
| 0.93 | −0.09 | 0.64 | 0.12 | 0.43 | 0.03 | 0.48 | −0.08 | 0.55 | −0.28 | 0.66 | −0.60 | 0.8 | −0.16 | −0.03 | 1.60 | – | C=CCn1c(SCC(=O)c2ccc(O)c(C(N)=O)c2)nc2ccccc2c1=O [5a, 5-(2-((3-allyl-4-oxo-3,4-dihydroquinazolin-2-yl)thio)acetyl)-2-hydroxybenzamide] | > 50 | less cytotoxic or non-cytotoxic | > 100 | – |
| – | – | – | – | – | – | – | – | – | – | – | – | – | – | – | – | – | CNC(=O)c1cc(Oc2ccc(NC(=O)Nc3ccc(Cl)c(C(F)(F)F)c3)cc2)ccn1 [Sorafenib, reference compound] | 4.87 ± 0.19 | – | 5.11 ± 0.16 | cell viability level ([3]; HepG2, 48 h, concentrations exceeding 5 µM): below 50% |
| 0.91 | −0.31 | 1.37 | 0.05 | 0.47 | −0.01 | 0.51 | −0.14 | 0.58 | −0.32 | 0.68 | −0.62 | 0.81 | −0.21 | −0.03 | 1.46 | The least lipophilic compound | CCn1c(SCC(=O)c2ccc(O)c(C(N)=O)c2)nc2ccccc2c1=O [5c, 5-(2-((3-ethyl-4-oxo-3,4-dihydroquinazolin-2-yl)thio)acetyl)-2-hydroxybenzamide] | 25.46 ± 0.2 | moderate cytotoxicity | 34.5 ± 1.09 | Selectivity Index (SI) [3]: 1.35; reduction in cell viability (in words) ([3]; HepG2, 48 h, over 37.5 µM): important reduction in cell viability; relative cell viability result (in words) ([4]; BJ, over 37.5 µM): significantly unfavorable |
